Values joined by “and” are separate entries in the source; they are usually repeats but may differ in a detail not shown here. Identical values can stand only once.
What was measured:
H1781 = test: Cancer cell viability; type: cell-based, human; details: read-out: IC50 (average ± SD); H1781, NSCLC, HER2 ins, 72 h
Ba/F3 cells HER2 V777L = test: Ba/F3 cell viability; type: cell-based; details: read-out: IC50 (average ± SD); Ba/F3 HER2 V777L, 3 days
[1] = system: Ba/F3 cells HER2 755_757LREdelinsRP; test: Ba/F3 cell viability; type: cell-based; details: read-out: IC50 (average ± SD); Ba/F3 HER2 755_757LREdelinsRP, 3 days
DFCI 429 = test: Patient-derived cancer cell viability; type: cell-based, human; details: read-out: IC50 (average ± SD); DFCI 429, NSCLC, HER2 amp, 3 days
Ba/F3 cells HER2 L755S = test: Ba/F3 cell viability; type: cell-based; details: read-out: IC50 (average ± SD); Ba/F3 HER2 L755S, 3 days
HER2 [2] = molecular target: T1, HER2 (Homo sapiens, UniProt P04626); details: Calu-3 cells
[3] = system: Ba/F3 cells HER2 amplification; test: Ba/F3 cell viability; type: cell-based; details: read-out: IC50 (average ± SD); Ba/F3 HER2 amplification, 3 days
HER2 [4] = molecular target: T1, HER2; details: Calu-3 cells, in the presence of cycloheximide
SKBR3 = test: Cancer cell viability; type: cell-based, human; details: read-out: IC50 (average ± SD); SKBR3, breast cancer, HER2 amp, 72 h
Calu-3 tumors [5] = test: Calu-3 xenograft efficacy; type: in vivo; details: Calu-3 in NCr nude mice, oral, 39 days; JBJ-08-178-01 at 50 mg/kg BID
DFCI 315 [6] = test: AO/PI live/dead staining of tumor spheroids; type: cell-based, human; details: DFCI 315 tumor spheroids, 5 days
BT-474 = test: Cancer cell viability; type: cell-based, human; details: read-out: IC50 (average ± SD); BT-474, breast cancer, HER2 amp, 72 h
Ba/F3 cells HER2 S310F = test: Ba/F3 cell viability; type: cell-based; details: read-out: IC50 (average ± SD); Ba/F3 HER2 S310F, 3 days
A-431 = test: Cancer cell viability; type: cell-based, human; details: read-out: IC50 (average ± SD); A-431, epidermoid, EGFR amp, 72 h
Calu-3 tumors [7] = test: TUNEL assay in Calu-3 tumors; type: in vivo, NCr nude mice; details: 50 mg/kg BID, 3 days dosing
MCF7 = test: Cancer cell viability; type: cell-based, human; details: read-out: IC50 (average ± SD); MCF7, breast cancer, no ERBB mutation, 72 h
[8] = Pharmacokinetic properties in mice; type: in vivo
[9] = system: HER YVMA Ba/F3 cells containing a concurrent C805S mutation; test: Ba/F3 cell viability, concurrent C805S mutation; type: cell-based; details: HER YVMA Ba/F3 cells with concurrent C805S mutation
[10] = system: WT EGFR vs all HER2 mutants Ba/F3 cells; test: Selectivity index from Ba/F3 IC50 ratios; type: cell-based; details: average over HER2 mutants
[11] = system: Ba/F3 cells HER2 P780_Y781insGSP; test: Ba/F3 cell viability; type: cell-based; details: read-out: IC50 (average ± SD); Ba/F3 HER2 P780_Y781insGSP, 3 days
NCI-N87 = test: Cancer cell viability; type: cell-based, human; details: read-out: IC50 (average ± SD); NCI-N87, HER2 amp, 72 h
[12] = system: Ba/F3 cells HER2 M774delinsWLV; test: Ba/F3 cell viability; type: cell-based; details: read-out: IC50 (average ± SD); Ba/F3 HER2 M774delinsWLV, 3 days
[13] = system: Ba/F3 cells HER2 A775_G776insYVMA; test: Ba/F3 cell viability; type: cell-based; details: read-out: IC50 (average ± SD); Ba/F3 HER2 A775_G776insYVMA, 3 days
DFCI 315 [14] = test: Patient-derived tumor spheroid viability; type: cell-based, human; details: read-out: IC50 (average ± SD); DFCI 315, NSCLC, HER2 ins, 6 days
[15] = system: Ba/F3 cells HER2 G776delinsVC; test: Ba/F3 cell viability; type: cell-based; details: read-out: IC50 (average ± SD); Ba/F3 HER2 G776delinsVC, 3 days
[16] = system: Ba/F3 cells WT EGFR (+ rhEGF); test: Ba/F3 cell viability; type: cell-based; details: read-out: IC50 (average ± SD); Ba/F3 WT EGFR (+ rhEGF 10 ng/mL), 3 days
[17] = system: Ba/F3 cells harboring various HER2 exon 20 insertions or amplification; details: read-out: IC50 across all exon 20 mutants or amplification, cell growth
WT HER2 = WT HER2 (Homo sapiens, UniProt P04626); details: purified kinase 5 nmol/L, 100 μmol/L ATP
Ba/F3 cells HER2 V862I = test: Ba/F3 cell viability; type: cell-based; details: read-out: IC50 (average ± SD); Ba/F3 HER2 V862I, 3 days
Calu-3 = test: Caspase-3/7 activity, live-cell imaging; type: cell-based, human; details: Calu-3, live-cell imaging, 3 days

T1 sequence (P04626 23-1255): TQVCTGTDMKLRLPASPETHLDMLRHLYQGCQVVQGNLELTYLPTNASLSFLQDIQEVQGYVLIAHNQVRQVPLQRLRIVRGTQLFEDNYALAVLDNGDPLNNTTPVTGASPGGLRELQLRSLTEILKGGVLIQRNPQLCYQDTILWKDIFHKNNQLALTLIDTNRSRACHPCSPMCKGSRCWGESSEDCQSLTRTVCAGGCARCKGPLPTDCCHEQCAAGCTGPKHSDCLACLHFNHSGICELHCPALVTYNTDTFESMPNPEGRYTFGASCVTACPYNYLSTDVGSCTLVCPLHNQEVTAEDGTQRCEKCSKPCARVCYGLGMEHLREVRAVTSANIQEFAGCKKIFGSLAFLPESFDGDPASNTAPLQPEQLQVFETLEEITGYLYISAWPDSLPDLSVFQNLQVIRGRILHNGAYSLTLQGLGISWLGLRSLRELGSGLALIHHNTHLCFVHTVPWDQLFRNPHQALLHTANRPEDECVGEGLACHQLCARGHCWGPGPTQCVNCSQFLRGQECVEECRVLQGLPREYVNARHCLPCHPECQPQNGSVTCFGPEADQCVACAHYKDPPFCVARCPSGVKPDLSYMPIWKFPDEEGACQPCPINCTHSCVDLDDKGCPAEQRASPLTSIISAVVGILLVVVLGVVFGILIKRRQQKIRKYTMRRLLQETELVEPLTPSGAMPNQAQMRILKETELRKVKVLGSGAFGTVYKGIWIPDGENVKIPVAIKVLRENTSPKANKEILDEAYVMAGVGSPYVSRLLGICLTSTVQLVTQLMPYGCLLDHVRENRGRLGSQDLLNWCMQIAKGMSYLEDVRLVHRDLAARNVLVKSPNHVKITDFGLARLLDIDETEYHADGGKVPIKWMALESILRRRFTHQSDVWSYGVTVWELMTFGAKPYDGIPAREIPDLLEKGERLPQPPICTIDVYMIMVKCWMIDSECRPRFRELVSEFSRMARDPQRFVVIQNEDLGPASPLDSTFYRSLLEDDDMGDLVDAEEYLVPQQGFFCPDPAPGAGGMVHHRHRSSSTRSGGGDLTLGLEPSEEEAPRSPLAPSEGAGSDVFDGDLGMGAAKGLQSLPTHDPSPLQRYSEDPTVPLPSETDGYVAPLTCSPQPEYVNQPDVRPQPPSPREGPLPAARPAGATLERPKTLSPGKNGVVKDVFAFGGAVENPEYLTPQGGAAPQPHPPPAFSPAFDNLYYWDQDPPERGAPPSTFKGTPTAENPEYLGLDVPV
Sequence of WT HER2 (P04626 720-987 limits assumed): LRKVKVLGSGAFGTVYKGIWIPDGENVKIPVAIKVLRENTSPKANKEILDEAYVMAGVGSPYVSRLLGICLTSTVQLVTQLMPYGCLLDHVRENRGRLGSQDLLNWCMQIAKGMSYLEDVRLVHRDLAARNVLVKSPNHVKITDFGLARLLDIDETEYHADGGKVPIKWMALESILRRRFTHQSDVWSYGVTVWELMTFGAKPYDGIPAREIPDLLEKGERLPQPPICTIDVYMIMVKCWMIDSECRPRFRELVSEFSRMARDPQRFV

In the case of `CCOc1cc2ncc(C#N)c(Nc3ccc(Oc4ccn5ncnc5c4)c(C)c3)c2cc1NC(=O)/C=C/CN(C)C` [JBJ-08-178-01], the IC50 (H1781) is reported as 151 ± 52.7 nM, the IC50 (Ba/F3 cells HER2 V777L) is reported as 2.71 ± 0.41 nM and the IC50 [1] is reported as 7.24 ± 2.28 nM. For the same molecule, the IC50 (DFCI 429) was 252 ± 179 nM, the IC50 (Ba/F3 cells HER2 L755S) was 140 ± 45.3 nM and the “HER2 endocytosis (pHrodo fluorescence signal)” value (HER2 [2]) was “dramatic increase of fluorescence signal in the cytoplasm”. The IC50 [3] was 15.3 ± 11.4 nM, the “protein stability of HER2” value (HER2 [4]) was “decreased protein stability of HER2 compared with vehicle” and the IC50 (SKBR3) was 79.4 ± 56.5 nM. The tumor growth (Calu-3 tumors [5]) was “comparable tumor regression with neratinib”, the PI-positive dead cells (DFCI 315 [6]) was “significantly increased PI-positive dead cells” and the IC50 (BT-474) was 43.7 ± 11.1 nM. The IC50 (Ba/F3 cells HER2 S310F) was 41.5 ± 13.4 nM, the IC50 (A-431) was 378 ± 77.1 nM and the “cell apoptosis (TUNEL)” value (Calu-3 tumors [7]) was “significantly increased cell apoptosis compared with vehicle”. The IC50 (MCF7) was 967 ± 429 nM, the AUCINF_obs ([8]; IV (2 mg/kg)) was 323,166 min*ng/mL and the AUClast ([8]; IV (2 mg/kg)) was 317,601 min*ng/mL. It also gave a CI_obs ([8]; IV (2 mg/kg)) of 6.26 mL/min/kg, a Cmax ([8]; IV (2 mg/kg)) of 5.68 µM and an MRTINF_obs ([8]; IV (2 mg/kg)) of 1.42 h. It also gave a T1/2 ([8]; IV (2 mg/kg)) of 1.41 h, a Tmax ([8]; IV (2 mg/kg)) of 0.36 h and a Vss_obs ([8]; IV (2 mg/kg)) of 0.5 L/kg. For the same molecule, the AUCINF_obs ([8]; PO (10 mg/kg)) was 243,219 min*ng/mL, the AUClast ([8]; PO (10 mg/kg)) was 166,787 min*ng/mL and the CI_obs ([8]; PO (10 mg/kg)) was 48.87 mL/min/kg. It also gave a Cmax ([8]; PO (10 mg/kg)) of 1.12 µM, an F ([8]; PO (10 mg/kg)) of 10% and a T1/2 ([8]; PO (10 mg/kg)) of 3.65 h. The Tmax ([8]; PO (10 mg/kg)) was 2.33 h, the growth inhibition [9] was “did not inhibit the growth” and the “Selectivity index (IC50 ratio = WT EGFR ÷ all HER2 mutants)” value [10] was 6.8 and 6.83. For the same molecule, the IC50 [11] was 7.38 ± 2.66 nM, the IC50 (NCI-N87) was 1.2 nM and the IC50 [12] was 21 ± 12 nM. It also gave an IC50 [13] of 13.6 ± 2.24 nM, an IC50 (DFCI 315 [14]) of 456 ± 117 nM and an IC50 [15] of 6.01 ± 2.94 nM. For the same molecule, the IC50 [16] was 368 ± 103 nM, the IC50 [17] was under 50 nM and the “inhibition of WT HER2 in biochemical inhibition assays” value (WT HER2) was “potently inhibited WT HER2”. The IC50 (Ba/F3 cells HER2 V862I) was 284 ± 118 nM and the “apoptosis (caspase-3/7)” value (Calu-3) was “rapid and greater degree of apoptosis compared with cells treated with poziotinib, neratinib, or tucatinib”.
